# Measured values as given in paper PMC11650766 (ACS Infectious Diseases, 2024).
# How the values were obtained:
# Test in all cases: iSPP stabilization in E. coli K12 lysate at […], LC-MS/MS
# Assay type in all cases: cell-based
# [1] = target: PBP4 (DacB) (Escherichia coli, UniProt P24228)
# [2] = target: T1, PBP1a (MrcA) (Escherichia coli, UniProt P02918)
# T1 sequence (P02918 1-850): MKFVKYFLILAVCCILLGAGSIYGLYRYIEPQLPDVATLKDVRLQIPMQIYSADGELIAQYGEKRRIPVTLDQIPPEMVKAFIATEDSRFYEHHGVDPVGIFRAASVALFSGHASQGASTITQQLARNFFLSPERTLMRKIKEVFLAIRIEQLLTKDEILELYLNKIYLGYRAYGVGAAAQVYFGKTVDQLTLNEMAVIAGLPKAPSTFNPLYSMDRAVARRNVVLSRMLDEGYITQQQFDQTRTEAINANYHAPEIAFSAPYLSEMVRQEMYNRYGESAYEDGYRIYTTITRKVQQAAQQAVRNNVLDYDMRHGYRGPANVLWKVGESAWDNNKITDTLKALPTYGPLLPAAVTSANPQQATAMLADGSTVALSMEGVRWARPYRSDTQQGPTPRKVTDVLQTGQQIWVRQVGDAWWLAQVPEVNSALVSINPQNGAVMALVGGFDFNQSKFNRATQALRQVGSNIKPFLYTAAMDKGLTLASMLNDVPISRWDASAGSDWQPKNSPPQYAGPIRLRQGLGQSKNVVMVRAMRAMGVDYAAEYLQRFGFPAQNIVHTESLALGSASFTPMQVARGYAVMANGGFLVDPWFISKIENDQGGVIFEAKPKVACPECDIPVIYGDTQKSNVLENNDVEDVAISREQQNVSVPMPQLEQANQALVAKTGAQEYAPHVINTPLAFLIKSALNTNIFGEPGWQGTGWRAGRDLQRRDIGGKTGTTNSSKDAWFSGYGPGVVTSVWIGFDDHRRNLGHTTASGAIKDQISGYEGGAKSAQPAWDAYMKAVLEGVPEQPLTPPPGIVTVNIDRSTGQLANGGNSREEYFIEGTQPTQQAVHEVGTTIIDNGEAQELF
# [3] = target: RpoB (RNA polymerase β-subunit) (Escherichia coli, UniProt P0A8V2)
# Chain of RpoB (RNA polymerase β-subunit) (P0A8V2 whole entry): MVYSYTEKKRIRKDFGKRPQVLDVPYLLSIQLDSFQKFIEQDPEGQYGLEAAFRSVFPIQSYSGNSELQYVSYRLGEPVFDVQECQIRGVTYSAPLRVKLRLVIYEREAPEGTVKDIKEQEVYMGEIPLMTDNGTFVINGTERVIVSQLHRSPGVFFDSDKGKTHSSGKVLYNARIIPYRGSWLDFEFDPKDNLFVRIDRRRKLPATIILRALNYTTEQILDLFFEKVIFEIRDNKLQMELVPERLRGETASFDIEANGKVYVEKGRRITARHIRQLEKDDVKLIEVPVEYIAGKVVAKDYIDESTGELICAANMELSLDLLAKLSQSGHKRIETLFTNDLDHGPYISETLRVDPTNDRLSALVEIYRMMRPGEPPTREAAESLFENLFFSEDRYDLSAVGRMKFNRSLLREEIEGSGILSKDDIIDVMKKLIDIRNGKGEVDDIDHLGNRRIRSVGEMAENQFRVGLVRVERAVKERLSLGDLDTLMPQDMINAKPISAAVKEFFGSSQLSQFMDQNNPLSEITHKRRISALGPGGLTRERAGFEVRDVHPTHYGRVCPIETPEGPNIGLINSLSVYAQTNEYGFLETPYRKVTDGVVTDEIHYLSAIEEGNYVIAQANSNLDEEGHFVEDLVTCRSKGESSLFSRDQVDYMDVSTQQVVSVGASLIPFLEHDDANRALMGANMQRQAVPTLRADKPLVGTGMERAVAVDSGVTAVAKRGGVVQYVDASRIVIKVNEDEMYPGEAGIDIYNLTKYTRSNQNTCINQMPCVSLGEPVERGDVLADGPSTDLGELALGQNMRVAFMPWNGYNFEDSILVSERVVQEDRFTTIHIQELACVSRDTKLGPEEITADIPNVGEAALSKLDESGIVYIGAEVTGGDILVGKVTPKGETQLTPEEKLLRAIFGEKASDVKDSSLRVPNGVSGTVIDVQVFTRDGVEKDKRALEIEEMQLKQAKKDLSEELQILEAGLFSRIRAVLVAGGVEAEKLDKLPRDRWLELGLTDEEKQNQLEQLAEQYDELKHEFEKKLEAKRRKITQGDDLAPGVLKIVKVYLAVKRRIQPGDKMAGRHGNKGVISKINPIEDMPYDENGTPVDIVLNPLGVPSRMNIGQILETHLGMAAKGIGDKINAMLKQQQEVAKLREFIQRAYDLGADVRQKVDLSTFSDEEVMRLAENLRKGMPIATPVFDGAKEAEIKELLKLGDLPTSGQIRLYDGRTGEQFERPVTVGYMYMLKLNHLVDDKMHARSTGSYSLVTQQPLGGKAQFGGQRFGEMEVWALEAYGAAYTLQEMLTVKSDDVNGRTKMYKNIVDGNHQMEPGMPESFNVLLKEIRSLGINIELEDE
# Chain of RpoB (RNA polymerase β-subunit) (P0A8T7 whole entry partner): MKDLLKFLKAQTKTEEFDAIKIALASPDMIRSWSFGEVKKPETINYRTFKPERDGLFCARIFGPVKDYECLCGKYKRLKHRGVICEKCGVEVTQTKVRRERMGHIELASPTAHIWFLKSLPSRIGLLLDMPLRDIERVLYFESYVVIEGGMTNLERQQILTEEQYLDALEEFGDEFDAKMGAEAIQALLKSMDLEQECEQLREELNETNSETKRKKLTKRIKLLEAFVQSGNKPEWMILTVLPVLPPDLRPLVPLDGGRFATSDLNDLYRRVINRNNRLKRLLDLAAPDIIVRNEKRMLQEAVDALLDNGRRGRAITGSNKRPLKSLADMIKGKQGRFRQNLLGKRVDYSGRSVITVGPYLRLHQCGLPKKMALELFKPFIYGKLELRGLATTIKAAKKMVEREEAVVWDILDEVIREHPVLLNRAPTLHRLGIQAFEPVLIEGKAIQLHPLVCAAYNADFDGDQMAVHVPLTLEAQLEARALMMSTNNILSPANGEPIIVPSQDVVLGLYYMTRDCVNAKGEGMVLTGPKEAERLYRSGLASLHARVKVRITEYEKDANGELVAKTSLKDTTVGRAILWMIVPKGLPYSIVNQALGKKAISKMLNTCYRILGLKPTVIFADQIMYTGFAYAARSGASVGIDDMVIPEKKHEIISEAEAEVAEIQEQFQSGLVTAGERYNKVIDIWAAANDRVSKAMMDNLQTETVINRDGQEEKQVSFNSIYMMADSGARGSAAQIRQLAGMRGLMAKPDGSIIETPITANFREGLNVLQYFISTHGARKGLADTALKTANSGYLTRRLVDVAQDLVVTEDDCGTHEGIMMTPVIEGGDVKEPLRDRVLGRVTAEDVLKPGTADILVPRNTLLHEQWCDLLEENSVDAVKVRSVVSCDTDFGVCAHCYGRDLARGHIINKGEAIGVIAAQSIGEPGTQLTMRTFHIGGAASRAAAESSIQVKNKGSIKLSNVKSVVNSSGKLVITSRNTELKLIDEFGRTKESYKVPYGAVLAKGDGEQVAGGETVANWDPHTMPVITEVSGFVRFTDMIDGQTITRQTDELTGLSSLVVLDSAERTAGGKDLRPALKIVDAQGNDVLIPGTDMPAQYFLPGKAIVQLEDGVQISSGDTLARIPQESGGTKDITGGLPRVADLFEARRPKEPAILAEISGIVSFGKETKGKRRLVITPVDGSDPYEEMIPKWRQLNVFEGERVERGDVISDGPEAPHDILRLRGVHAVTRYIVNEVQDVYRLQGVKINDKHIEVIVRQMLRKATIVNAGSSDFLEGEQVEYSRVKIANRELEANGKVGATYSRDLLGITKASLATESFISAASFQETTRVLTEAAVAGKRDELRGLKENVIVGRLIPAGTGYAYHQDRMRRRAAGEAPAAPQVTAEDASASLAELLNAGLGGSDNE
# Chain of RpoB (RNA polymerase β-subunit) (P0A7Z4 whole entry partner): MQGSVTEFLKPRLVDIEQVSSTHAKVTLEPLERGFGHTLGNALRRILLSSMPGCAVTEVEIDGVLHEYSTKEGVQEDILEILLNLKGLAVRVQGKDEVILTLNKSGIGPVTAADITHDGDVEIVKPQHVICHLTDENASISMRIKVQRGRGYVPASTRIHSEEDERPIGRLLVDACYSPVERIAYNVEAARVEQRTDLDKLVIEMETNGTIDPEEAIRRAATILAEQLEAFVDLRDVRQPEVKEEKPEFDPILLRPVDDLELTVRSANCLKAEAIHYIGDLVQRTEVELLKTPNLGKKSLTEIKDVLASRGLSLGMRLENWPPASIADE
# Chain of PBP4 (DacB) (P24228 21-477): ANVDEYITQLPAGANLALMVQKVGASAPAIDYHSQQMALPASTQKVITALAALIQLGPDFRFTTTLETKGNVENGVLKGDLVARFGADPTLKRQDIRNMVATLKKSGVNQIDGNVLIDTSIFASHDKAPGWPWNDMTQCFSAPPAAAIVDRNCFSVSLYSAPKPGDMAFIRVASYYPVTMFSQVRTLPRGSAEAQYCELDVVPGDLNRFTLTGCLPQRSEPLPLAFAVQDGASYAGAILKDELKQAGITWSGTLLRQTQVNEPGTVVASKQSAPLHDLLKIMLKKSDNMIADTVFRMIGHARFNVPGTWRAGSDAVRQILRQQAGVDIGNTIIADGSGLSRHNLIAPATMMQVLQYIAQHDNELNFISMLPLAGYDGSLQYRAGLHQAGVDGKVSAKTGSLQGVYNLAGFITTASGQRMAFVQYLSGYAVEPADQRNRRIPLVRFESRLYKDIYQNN
Compound,"iSPP stabilization in E. coli K12 lysate at 10 μM, LC-MS/MS [1]","iSPP stabilization in E. coli K12 lysate at 10 μM, LC-MS/MS [2]","iSPP stabilization in E. coli K12 lysate at 10 μM, LC-MS/MS [3]"
CC1(C)S[C@@H]2[C@H](NC(=O)[C@H](N)c3ccccc3)C(=O)N2[C@H]1C(=O)O [ampicillin],"Ampicillin led to a significant stabilization of PBP1a (MrcA) and PBP4 (DacB), the two top hits","Ampicillin led to a significant stabilization of PBP1a (MrcA) and PBP4 (DacB), the two top hits",
CO[C@H]1/C=C/O[C@@]2(C)Oc3c(C)c(O)c4c(O)c(c(/C=N/N5CCN(C)CC5)c(O)c4c3C2=O)NC(=O)/C(C)=C\C=C\[C@H](C)[C@H](O)[C@@H](C)[C@@H](O)[C@@H](C)[C@H](OC(C)=O)[C@@H]1C [rifampicin],,,"for rifampicin, we observed (Figure 2A) the stabilization of other subunits within the RNAP complex in addition to the primary target RpoB"
